# What was measured:
# [1] = biological target: all VDR orthologs/paralogs tested; experiment: Competitive ligand binding assays, all receptors together; conditions: range over all eight VDR orthologs/paralogs
# Method: Recombinant VDR and human RXRWT lysates were prepared from transfected COS7 cells (American Type Culture Collection #CRL-1651) as described in detail previously [32, 33]. Lysates were diluted 10-fold in ice-cold assay buffer (10 mM Tris HCl, 150 mM KCl, 1 mM EDTA, 0.3 mM ZnCl2, 5 mM DTT, and 1x protease inhibitor cocktail (100 μM AEBSF, 80 nM aprotinin, 5 μM bestatin, 1.5 μM E-64 (for cysteine proteases), 2 μM leupeptin, 1 μM pepstatin A), pH 7.5). […] Reactions were shaken to mix and incubated for 18 hours at 4°C. Bound and free ligand were separated with the addition of 80 μL of ice-cold separation buffer (2.5% (w/v) activated charcoal, 0.5% (w/v) dextran, 100 mM Na2HPO4, 39 mM NaH2PO4, 150 mM NaCl, 15 mM NaN3, 10% gelatin, pH 7.0), and incubated at 4°C for 15 minutes with shaking every 5 minutes. Reactions were centrifuged at 5,000 x g for 5 minutes at 4°C, and 200 μL of the supernatant containing the VDR-bound ligands was removed for scintillation counting.
# Total binding was determined using lysate from cells transfected with VDR, and nonspecific binding was determined using lysate from cells transfected with the empty pSG5 vector. Specific binding was determined by subtracting non-specific binding counts from the total binding counts.
# Zebrafish VDRβ = biological target: T1, Zebrafish VDRβ (Danio rerio, UniProt Q1L673); experiment: Mammalian 2-hybrid assay (VDR-coregulator interaction, HepG2); type: cell-based; set-up: expressed in transfected cells; host or cells: HepG2; conditions: 100 μM LCA
# T1 sequence (Q1L673 1-422): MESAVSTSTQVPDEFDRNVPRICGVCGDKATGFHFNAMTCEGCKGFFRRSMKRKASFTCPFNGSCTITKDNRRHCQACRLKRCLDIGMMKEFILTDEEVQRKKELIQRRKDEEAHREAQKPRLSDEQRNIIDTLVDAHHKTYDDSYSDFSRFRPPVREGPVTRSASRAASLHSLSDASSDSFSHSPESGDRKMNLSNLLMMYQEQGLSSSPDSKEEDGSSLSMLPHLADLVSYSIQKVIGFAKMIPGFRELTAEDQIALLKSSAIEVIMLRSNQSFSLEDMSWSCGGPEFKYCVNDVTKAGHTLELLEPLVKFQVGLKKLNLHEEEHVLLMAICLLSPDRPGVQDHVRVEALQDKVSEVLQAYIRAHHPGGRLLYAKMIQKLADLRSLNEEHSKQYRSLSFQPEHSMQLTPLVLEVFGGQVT
# Text: (§1) Prey constructs included full-length VDRs fused to the herpes simplex VP16 activation domain (pVP16-VDR). Bait constructs consisted of either full-length wild-type human RXR (pM-RXRWT), a truncated human RXR mutant (pM-RXRAF2), or the defined NR box of each member of the SRC/p160 family (pM-SRC1_241-386, pM-GRIP1_479-767, or pM-ACTR392-1005) fused to the yeast Gal4 DNA-binding domain. Reporters included the Gal4 luciferase reporter (5xGal4-TATA-Luc) and pRL-CMV as an internal luciferase control.
# (§2) HepG2 cells were seeded into 96-well tissue culture plates as described above and transfected with Lipofectamine 2000 the following day. Each well received 33.6 ng pVP16-VDR, 33.6 ng pM-coregulator (where indicated), 126.6 ng 5XGal4-TATA-Luc, and 3 ng pRL-CMV. […] Positive controls were treated with 1,25D3 and vehicle controls were treated with ethanol. Luciferase activity was measured 24 hours post-exposure using the Dual-Glo Luciferase Assay System described above. Raw luciferase data were normalized to the pRL-CMV luciferase control. VDR-coregulator response was normalized to the pVP16-VDR in the absence of bait constructs. Results were analyzed using a two-way ANOVA followed by Bonferroni’s multiple comparisons test in Prism (GraphPad Inc, San Diego, CA). All experiments were replicated 3 times and conducted as groups of 4 replicate wells.
# Lamprey VDR = biological target: T2, Lamprey VDR (Petromyzon marinus, UniProt Q7ZZY9); experiment: as above; type: cell-based; conditions: 100 μM LCA
# T2 sequence (Q7ZZY9 1-406): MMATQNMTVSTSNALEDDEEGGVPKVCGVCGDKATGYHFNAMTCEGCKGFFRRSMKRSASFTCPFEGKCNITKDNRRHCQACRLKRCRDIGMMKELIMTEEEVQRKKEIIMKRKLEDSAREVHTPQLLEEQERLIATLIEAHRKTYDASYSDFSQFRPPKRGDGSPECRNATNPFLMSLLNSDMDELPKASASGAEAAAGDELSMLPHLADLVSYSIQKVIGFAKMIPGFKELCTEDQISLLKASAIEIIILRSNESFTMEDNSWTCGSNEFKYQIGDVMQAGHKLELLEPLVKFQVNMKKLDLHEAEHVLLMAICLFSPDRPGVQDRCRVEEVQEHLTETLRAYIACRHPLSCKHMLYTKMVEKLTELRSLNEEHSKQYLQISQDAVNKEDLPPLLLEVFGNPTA
# T2 sequence (P19793 1-462 partner): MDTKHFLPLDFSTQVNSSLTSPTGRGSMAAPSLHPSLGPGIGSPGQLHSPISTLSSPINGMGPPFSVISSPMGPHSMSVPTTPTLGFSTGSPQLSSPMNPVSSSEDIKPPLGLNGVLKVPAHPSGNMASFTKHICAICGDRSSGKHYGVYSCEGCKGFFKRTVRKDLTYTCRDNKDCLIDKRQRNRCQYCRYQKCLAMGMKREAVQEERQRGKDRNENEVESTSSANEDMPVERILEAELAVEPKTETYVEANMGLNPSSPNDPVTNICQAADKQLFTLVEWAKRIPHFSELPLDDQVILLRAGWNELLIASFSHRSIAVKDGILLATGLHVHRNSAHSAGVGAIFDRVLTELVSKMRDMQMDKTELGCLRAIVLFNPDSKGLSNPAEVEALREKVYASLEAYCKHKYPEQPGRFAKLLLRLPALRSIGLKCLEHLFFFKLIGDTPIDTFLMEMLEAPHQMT
# Text: as §1, §2
# Medaka VDRα = Medaka VDRα (Oryzias latipes, UniProt B2CCA0); experiment: as above; type: cell-based; conditions: 100 μM LCA
# Text: as §1, §2
# [2] = bait human RXRWT, presence and absence of SRC1
# Sequence of Medaka VDRα (B2CCA0 entry or part of it, one chain of several): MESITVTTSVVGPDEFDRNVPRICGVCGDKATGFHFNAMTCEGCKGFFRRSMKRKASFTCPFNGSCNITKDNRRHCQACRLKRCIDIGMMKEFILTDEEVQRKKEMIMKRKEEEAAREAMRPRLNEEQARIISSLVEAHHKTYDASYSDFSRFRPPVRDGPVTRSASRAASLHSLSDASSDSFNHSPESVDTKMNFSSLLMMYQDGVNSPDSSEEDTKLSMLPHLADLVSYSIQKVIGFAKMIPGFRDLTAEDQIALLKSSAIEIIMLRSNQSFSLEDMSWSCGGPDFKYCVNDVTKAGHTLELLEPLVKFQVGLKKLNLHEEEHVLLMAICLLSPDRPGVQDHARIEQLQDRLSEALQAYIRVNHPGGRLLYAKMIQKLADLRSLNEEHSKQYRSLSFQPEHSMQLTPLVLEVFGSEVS
smiles,measurement,setting,value
"C[C@H](CCC(=O)O)[C@H]1CC[C@H]2[C@@H]3CC[C@@H]4C[C@H](O)CC[C@]4(C)[C@H]3CC[C@]12C [LCA, 5β-cholanic acid-3α-ol]",Ki,[1],4.2 to 9.5 µM
same,VDR-RXRWT interaction (heterodimerization),Zebrafish VDRβ; [2],not observed
same,VDR-SRC1 interaction,Zebrafish VDRβ; cotransfection of RXRWT,strong VDR-SRC1 interactions
same,VDR-SRC/p160 coactivator interaction,Lamprey VDR; any of the SRC/p160 coactivators,No protein-protein interaction was observed
same,VDR-RXRWT interaction (heterodimerization),Lamprey VDR; [2],not observed
same,VDR-RXRWT interaction (heterodimerization),Medaka VDRα; bait human RXRWT,Robust and significant VDR-RXRWT interactions
same,VDR-SRC1 interaction,Medaka VDRα; cotransfection of RXRWT,strong VDR-SRC1 interactions
